Like-named read-outs stand apart in the source and are kept apart here.
Legend:
human DGKζ = human DGKζ (Homo sapiens (Human), UniProt Q13574); assay: DGKζ assay (detergent/lipid micelle substrate); format: biochemical; conditions: detergent/lipid micelle substrate; read-out: DGKζ IC50
Procedure: (§1) The DGKα and DGKζ reactions were performed using either extruded liposome (DGKα and DGKζ LIPGLO assays) or detergent/lipid micelle substrate (DGKα and DGKζ assays). The reactions were carried out in 50 mM MOPS pH 7.5, 100 mM NaCl, 10 mM MgCl2, 1 μM CaCl2, and 1 mM DTT (assay buffer). The reactions using a detergent/lipid micelle substrate also contained 50 mM octyl B-D-glucopyranoside. […] The lipid substrate concentrations were […], 0.25 mM DAG, and 2.75 mM PC for the extruded liposome reactions.
(§2) The compound inhibition studies were carried out as follows: 50 nL droplets of each test compound (top concentration 10 mM with 11 point, 3-fold dilution series for each compound) solubilized in DMSO were transferred to wells of a white 1536 well plate (Corning 3725). A 5 mL enzyme/substrate solution at 2× final reaction concentration was prepared by combining 2.5 mL 4× enzyme solution (20 nM DGKα or DGKζ (prepared as described below) in assay buffer) and 2.5 mL of either 4× liposome or 4× detergent/lipid micelle solution (compositions described below) and incubated at room temperature for 10 minutes. Next, 1 μL 2× enzyme/substrate solution was added to wells containing the test compound and reactions were initiated with the addition of 1 μL 300 uM ATP. The reactions were allowed to proceed for 1 hr, after which 2 μL Glo Reagent (Promega V9101) was added and incubated for 40 minutes. Next, 4 μL Kinase Detection Reagent was added and incubated for 30 minutes. Luminescence was recorded using an EnVision microplate reader. […] The compounds were evaluated at 11 concentrations to determine IC50.
(§3) The detergent/lipid micelle was prepared by combining 15 g phosphatidylserine (Avanti 840035P) and 1 g diacylglycerol (800811O) and dissolving into 150 mL chloroform in a 2 L round bottom flask. Chloroform was removed under high vacuum by rotary evaporation. The resulting colorless, tacky oil was resuspended in 400 mL 50 mM MOPS pH 7.5, 100 mM NaCl, 20 mM NaF, 10 mM MgCl2, 1 μM CaCl2), 1 mM DTT, and 200 mM octyl glucoside by vigorous mixing. The lipid/detergent solution was split into 5 mL aliquots and stored at −80° C.
(§4) Human DGK-alpha-TVMV-His-pFBgate and human DCK-zeta-transcript variant-2-TVMV-His-pFBgate baculovirus samples were generated using the Bac-to-Bac baculovirus expression system (Invitrogen) according to the manufacturer's protocol. The DNA used for expression of DGK-alpha and DGK-zeta have SEQ ID NOs: 1 and 3, respectively. Baculovirus amplification was achieved using infected Sf9 cells at 1:1500 virus/cell ratios, and grown for 65 hours at 27° C. post-transfection.
(§5) The expression scale up for each protein was carried out in the Cellbag 50 L WAVE-Bioreactor System 20/50 from GE Healthcare Bioscience. 12 L of 2×10^6 cells/mL Sf9 cells (Expression System, Davis, Calif.) grown in ESF921 insect medium (Expression System) were infected with virus stock at 1:200 virus/cell ratios, and grown for 66-68 hours at 27° C. post-infection. The infected cell culture was harvested by centrifugation at 2000 rpm for 20 min 4° C. in a SORVALL® RC12BP centrifuge. The cell pellets were stored at −70° C. until purification.
(§6) Full length human DGKα and DGKζ, each expressed containing a TVMV-cleavable C-terminal Hexa-His tag sequence (SEQ ID NOs: 2 and 4, respectively) and produced as described above, were purified from Sf) baculovirus-infected insect cell paste. The cells were lysed using nitrogen cavitation method with a nitrogen bomb (Parr Instruments), and the lysates were clarified by centrifugation. […] The three steps column chromatography included nickel affinity resin capture (i.e. HisTrap FF crude, GE Healthcare), followed by size exclusion chromatography (i.e. HiLoad 26/600 Superdex 200 prep grade, GE Healthcare for DGK-alpha, and HiPrep 26/600 Sephacryl S 300_HR, GE Healthcare for DGK-zeta).

[1] = system: pre-activated CD4 T cells and Raji cells; assay: Raji CD4 T Cell IL2 Assay; format: cell-based
human DGKα = human DGKα (Homo sapiens (Human), UniProt P23743); assay: biochemical; conditions: detergent/lipid micelle substrate; read-out: DGKα IC50
Procedure: as §1, §2, §3, §4, §5, §6

Chain of human DGKζ (Q13574 other isoform, or with tags, fused parts or gaps): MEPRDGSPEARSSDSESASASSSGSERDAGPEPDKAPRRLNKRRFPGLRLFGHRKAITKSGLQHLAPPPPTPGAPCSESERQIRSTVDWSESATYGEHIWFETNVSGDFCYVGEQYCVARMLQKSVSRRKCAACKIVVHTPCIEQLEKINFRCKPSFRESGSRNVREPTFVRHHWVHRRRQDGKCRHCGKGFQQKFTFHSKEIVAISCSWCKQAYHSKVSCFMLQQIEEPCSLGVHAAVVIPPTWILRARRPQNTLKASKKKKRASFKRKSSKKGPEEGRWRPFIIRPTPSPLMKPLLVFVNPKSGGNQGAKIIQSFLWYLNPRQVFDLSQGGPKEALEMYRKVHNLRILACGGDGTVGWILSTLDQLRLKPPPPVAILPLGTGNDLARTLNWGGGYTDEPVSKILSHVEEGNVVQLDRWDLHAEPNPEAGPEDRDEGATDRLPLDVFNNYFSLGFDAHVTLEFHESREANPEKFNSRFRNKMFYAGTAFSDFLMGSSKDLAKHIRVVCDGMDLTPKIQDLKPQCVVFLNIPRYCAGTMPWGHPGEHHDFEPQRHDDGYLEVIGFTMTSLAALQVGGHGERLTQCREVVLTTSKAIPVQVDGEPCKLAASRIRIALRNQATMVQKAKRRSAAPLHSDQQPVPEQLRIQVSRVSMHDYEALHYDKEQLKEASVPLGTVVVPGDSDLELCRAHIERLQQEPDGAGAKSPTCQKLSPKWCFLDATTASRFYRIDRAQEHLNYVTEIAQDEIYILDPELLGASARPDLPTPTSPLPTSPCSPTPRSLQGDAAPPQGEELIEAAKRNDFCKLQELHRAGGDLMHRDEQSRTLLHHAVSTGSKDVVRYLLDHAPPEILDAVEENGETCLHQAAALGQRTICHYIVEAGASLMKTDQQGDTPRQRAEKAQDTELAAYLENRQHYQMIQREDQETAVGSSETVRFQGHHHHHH
Chain of human DGKα (P23743 other isoform, or with tags, fused parts or gaps): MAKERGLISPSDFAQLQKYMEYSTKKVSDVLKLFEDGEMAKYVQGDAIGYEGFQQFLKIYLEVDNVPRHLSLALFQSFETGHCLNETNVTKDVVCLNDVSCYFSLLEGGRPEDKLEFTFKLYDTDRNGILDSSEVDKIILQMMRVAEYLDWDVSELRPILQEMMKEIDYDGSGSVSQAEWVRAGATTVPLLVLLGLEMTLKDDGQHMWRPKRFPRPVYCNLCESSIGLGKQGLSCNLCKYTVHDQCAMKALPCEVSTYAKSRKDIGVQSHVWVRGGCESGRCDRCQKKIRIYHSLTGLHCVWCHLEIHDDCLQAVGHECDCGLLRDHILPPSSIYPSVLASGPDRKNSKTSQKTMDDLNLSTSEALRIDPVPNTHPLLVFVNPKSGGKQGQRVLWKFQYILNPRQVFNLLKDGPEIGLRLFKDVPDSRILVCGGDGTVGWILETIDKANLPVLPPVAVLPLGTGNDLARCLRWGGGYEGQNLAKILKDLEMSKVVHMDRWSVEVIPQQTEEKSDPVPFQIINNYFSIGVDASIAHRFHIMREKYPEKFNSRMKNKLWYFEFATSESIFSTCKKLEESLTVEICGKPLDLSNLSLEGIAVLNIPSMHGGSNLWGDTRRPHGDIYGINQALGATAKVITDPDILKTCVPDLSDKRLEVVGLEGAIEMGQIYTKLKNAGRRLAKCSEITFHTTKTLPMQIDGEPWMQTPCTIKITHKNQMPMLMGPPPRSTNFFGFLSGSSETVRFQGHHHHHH

Compound | IC50 (human DGKζ) | IC50 ([1]; Homo sapiens, Raji) | IC50 (human DGKα) | IC50 [1]
COc1ccc2c(c1)C(N1CCN(c3c([N+](=O)[O-])c(=O)n(C)c4ccc(C#N)nc34)CC1)CC2 (stereo not drawn) [Example 46, 8-(4-(6-methoxy-2,3-dihydro-1H-inden-1-yl)piperazin-1-yl)-5-methyl-7-nitro-6-oxo-5,6-dihydro-1,5-naphthyridine-2-carbonitrile] | 2.7 µM | 0.13 µM | 8.5 µM | –
Cc1ccccc1C(c1ccccc1O)N1CCN(c2c([N+](=O)[O-])c(=O)n(C)c3ccc(Br)nc23)CC1 (stereo not drawn) [Example 73, 6-bromo-4-(4-((2-hydroxyphenyl)(o-tolyl)methyl)piperazin-1-yl)-1-methyl-3-nitro-1,5-naphthyridin-2(1H)-one] | 2.1 µM | 0.026 µM | 0.9 µM | –
Cn1c(=O)c(C#N)c(N2CCN(Cc3ccccc3NC(=O)c3ccccc3)CC2)c2nc(Br)ccc21 [Example 213, N-(2-((4-(6-bromo-3-cyano-1-methyl-2-oxo-1,2-dihydro-1,5-naphthyridin-4-yl)piperazin-1-yl)methyl)phenyl)benzamide] | > 240 µM | 0.71 µM | 3.1 µM | –
Cc1cc(F)cc(CN2CCN(c3c(C#N)c(=O)n(C)c4ccc(Cl)nc34)CC2)c1 [Example 290, 6-chloro-4-{4-[(3-fluoro-5-methylphenyl)methyl]piperazin-1-yl}-1-methyl-2-oxo-1,2-dihydro-1,5-naphthyridine-3-carbonitrile] | > 240 µM | 0.11 µM | 2.2 µM | –
Cn1c(=O)c(C#N)c(N2CCN(Cc3cccc4cn[nH]c34)CC2)c2nc(Br)ccc21 [Example 333, 6-bromo-4-{4-[(1H-indazol-7-yl)methyl]piperazin-1-yl}-1-methyl-2-oxo-1,2-dihydro-1,5-naphthyridine-3-carbonitrile] | 230 µM | 0.54 µM | 5 µM | –
Cn1c(=O)c(C#N)c(N2CCN(Cc3cc(F)cc(F)c3)CC2)c2nc(Cl)ccc21 [Example 291, 6-chloro-4-{4-[(3,5-difluorophenyl)methyl]piperazin-1-yl}-1-methyl-2-oxo-1,2-dihydro-1,5-naphthyridine-3-carbonitrile] | > 81 µM | 0.11 µM | 0.33 µM | –
Cn1c(=O)c(C#N)c(N2CCN(Cc3ccccc3O)CC2)c2nc(Br)ccc21 [Example 2, 6-Bromo-4-(4-(2-hydroxybenzyl)piperazin-1-yl)-1-methyl-2-oxo-1,2-dihydro-1,5-naphthyridine-3-carbonitrile] | > 240 µM | 0.2 µM | 0.049 µM | –
Cc1ccc2c(n1)c(N1CCN(Cc3cccc(Br)c3O)CC1)c(C#N)c(=O)n2C [Example 286, 4-{4-[(3-bromo-2-hydroxyphenyl)methyl]piperazin-1-yl}-1,6-dimethyl-2-oxo-1,2-dihydro-1,5-naphthyridine-3-carbonitrile] | 140 µM | 0.1 µM | 1.2 µM | –
N#CCn1c(=O)c(C#N)c(N2CCN(C(c3ccc(F)cc3)c3ccc(F)cc3)CC2)c2nc(Br)ccc21 [Example 153, 4-(4-(bis(4-fluorophenyl)methyl)piperazin-1-yl)-6-bromo-1-(cyanomethyl)-2-oxo-1,2-dihydro-1,5-naphthyridine-3-carbonitrile] | 76 µM | 0.71 µM | 180 µM | –
Cc1cc(CN2CCN(c3c(C#N)c(=O)n(C)c4ccc(Cl)nc34)CC2)ccc1O [Example 356, 6-chloro-4-{4-[(4-hydroxy-3-methylphenyl)methyl]piperazin-1-yl}-1-methyl-2-oxo-1,2-dihydro-1,5-naphthyridine-3-carbonitrile] | > 240 µM | 3 µM | 0.3 µM | –
CCN(C)c1cccc(CN2CCN(c3c(C#N)c(=O)n(C)c4ccc(Cl)nc34)CC2)c1 [Example 199, 6-chloro-4-(4-(3-(ethyl(methyl)amino)benzyl)piperazin-1-yl)-1-methyl-2-oxo-1,2-dihydro-1,5-naphthyridine-3-carbonitrile] | > 240 µM | 0.38 µM | 0.48 µM | –
Cn1c(=O)c([N+](=O)[O-])c(N2CCN(C(c3ccc(F)cc3)c3ccc(F)cc3)CC2)c2nc(C#N)ccc21 [Example 40, 8-(4-(bis(4-fluorophenyl)methyl)piperazin-1-yl)-5-methyl-7-nitro-6-oxo-5,6-dihydro-1,5-naphthyridine-2-carbonitrile] | 1.3 µM | 0.037 µM | 1.9 µM | –
COCCn1c(=O)c([N+](=O)[O-])c(N2CCN(C(C)c3ccc(F)cc3)CC2)c2nc(C#N)ccc21 (single isomer, unassigned) [Example 149, 8-(4-(1-(4-fluorophenyl)ethyl)piperazin-1-yl)-5-(2-methoxyethyl)-7-nitro-6-oxo-5,6-dihydro-1,5-naphthyridine-2-carbonitrile] | 86 µM | – | 47 µM | 0.064 µM
Cn1c(=O)c(C#N)c(N2CCN(Cc3cccc4nc[nH]c34)CC2)c2nc(Br)ccc21 [Example 360] | > 240 µM | 9.6 µM | 48 µM | –
COc1ccc2c(c1)C(N1CCN(c3c(C#N)c(=O)n(C)c4ccc(Br)nc34)CC1)CC2 (stereo not drawn) [Example 21, 6-bromo-4-[4-(6-methoxy-2,3-dihydro-1H-inden-1-yl)piperazin-1-yl]-1-methyl-2-oxo-1,2-dihydro-1,5-naphthyridine-3-carbonitrile] | 94 µM | 0.41 µM | 22 µM | –
COc1cccc(CN2CCN(c3c(C#N)c(=O)n(C)c4ccc(Cl)nc34)CC2)c1O [Example 371, 6-chloro-4-{4-[(2-hydroxy-3-methoxyphenyl)methyl]piperazin-1-yl}-1-methyl-2-oxo-1,2-dihydro-1,5-naphthyridine-3-carbonitrile] | 170 µM | > 100 µM | 0.23 µM | –
COc1cc(F)ccc1C(c1ccc(F)cc1)N1CCN(c2c([N+](=O)[O-])c(=O)n(C)c3ccc(Br)nc23)CC1 (single isomer, unassigned) [Example 57, 6-bromo-4-(4-((4-fluoro-2-methoxyphenyl)(4-fluorophenyl)methyl)piperazin-1-yl)-1-methyl-3-nitro-1,5-naphthyridin-2(1H)-one] | 110 µM | – | 1.6 µM | 0.14 µM
Cn1c(=O)c(C#N)c(N2CCN(Cc3ccccc3F)CC2)c2nc(Br)ccc21 [Example 344, 6-bromo-4-{4-[(2-fluorophenyl)methyl]piperazin-1-yl}-1-methyl-2-oxo-1,2-dihydro-1,5-naphthyridine-3-carbonitrile] | > 240 µM | 0.82 µM | 0.4 µM | –
Cc1ccc(CN2CCN(c3c(C#N)c(=O)n(C)c4ccc(Cl)nc34)CC2)cc1F [Example 289, 6-chloro-4-{4-[(3-fluoro-4-methylphenyl)methyl]piperazin-1-yl}-1-methyl-2-oxo-1,2-dihydro-1,5-naphthyridine-3-carbonitrile] | > 81 µM | 0.11 µM | 0.25 µM | –
Cn1c(=O)c(C#N)c(N2CCN(Cc3ccccc3NC(=O)OC(C)(C)C)CC2)c2nc(Br)ccc21 [Example 284, tert-butyl N-(2-{[4-(6-bromo-3-cyano-1-methyl-2-oxo-1,2-dihydro-1,5-naphthyridin-4-yl)piperazin-1-yl]methyl}phenyl)carbamate] | > 240 µM | 0.098 µM | 1 µM | –

— patent publication US11866430B2, “Naphthyridinone compounds useful as T cell activators” (priority 2018, dated 2024)
